Patent publication US20250122160A1, “PROTEIN TYROSINE PHOSPHATASE INHIBITORS AND METHODS OF USE THEREOF” (Calico Life Sciences LLC, priority 0001, published 2025)

Tests used:
[1] = biological target: T1, His tagged PTPN2 (TC45) protein (Homo sapiens, UniProt P17706); assay: Mobility shift assay (MSA) to determine potency of PTPN2 inhibitors; type: biochemical; details: 0.5 nM enzyme, 2 μM substrate
T1 construct: made in house
T1 sequence (P17706 with tags, fused parts or gaps isoform P17706-2): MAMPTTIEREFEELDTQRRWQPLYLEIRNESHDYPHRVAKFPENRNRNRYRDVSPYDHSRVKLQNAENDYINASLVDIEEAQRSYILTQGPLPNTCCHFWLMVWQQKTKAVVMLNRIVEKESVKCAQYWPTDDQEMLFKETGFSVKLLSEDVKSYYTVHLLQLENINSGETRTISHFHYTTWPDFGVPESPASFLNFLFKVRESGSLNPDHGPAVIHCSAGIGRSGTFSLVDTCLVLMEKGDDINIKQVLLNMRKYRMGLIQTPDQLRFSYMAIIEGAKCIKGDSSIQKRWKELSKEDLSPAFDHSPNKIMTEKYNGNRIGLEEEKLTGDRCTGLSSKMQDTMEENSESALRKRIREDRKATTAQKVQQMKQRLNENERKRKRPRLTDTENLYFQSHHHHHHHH
Summary of the method: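 His-tagged human PTPN2 (TC45), 0.5 nM, preincubated 10 min at room temperature with compound (12-point, 1:3 dilutions) in HEPES pH 7.5 buffer with EGTA, EDTA, Tween 20 and DTT. Then 2 μM OG488-labelled phospho-insulin-receptor peptide was added for 10 min and quenched. % conversion was read by mobility shift, and IC50 came from % inhibition.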

[2] = biological target: T2, His tagged full-length PTPN1 protein (Homo sapiens, UniProt P18031); assay: Mobility shift assay (MSA) to determine potency of PTPN1 inhibitors; type: biochemical; details: 0.5 nM enzyme, 2 μM substrate
T2 construct: made in house
T2 sequence (P18031 with tags, fused parts or gaps): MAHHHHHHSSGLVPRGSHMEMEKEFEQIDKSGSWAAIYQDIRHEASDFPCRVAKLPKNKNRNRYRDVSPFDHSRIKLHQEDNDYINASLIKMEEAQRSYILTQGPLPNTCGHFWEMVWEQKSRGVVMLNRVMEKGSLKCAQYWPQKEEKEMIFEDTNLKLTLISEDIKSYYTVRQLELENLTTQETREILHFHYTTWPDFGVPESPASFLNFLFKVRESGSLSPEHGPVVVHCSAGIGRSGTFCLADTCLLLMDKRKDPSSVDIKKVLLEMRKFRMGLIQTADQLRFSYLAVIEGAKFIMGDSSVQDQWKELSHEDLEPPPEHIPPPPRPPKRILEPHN
Summary of the method: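 Readout is microfluidic mobility shift (ex 488/em 530 nm) of a 2 μM OG488-labelled pTyr insulin-receptor peptide after a 10 min room-temperature reaction, following 10 min enzyme–compound preincubation. Enzyme: 0.5 nM full-length His-tagged PTPN1 in HEPES pH 7.5 buffer. IC50 fitted from % inhibition at 12 concentrations (1:3 steps).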

SMILES	IC50 [1]	IC50 [2]
Cn1cncc1CN[C@@H]1CCc2cc(O)c(N3CC(=O)NS3(=O)=O)c(F)c2C1 [Compound 357, 5-[(7R)-1-fluoro-3-hydroxy-7-{[(1-methyl-1H-imidazol-5-yl)methyl]amino}-5,6,7,8-tetrahydronaphthalen-2-yl]-1λ^6,2,5-thiadiazolidine-1,1,3-trione]	10 to 100 nM	10 to 100 nM
CCOCCCN[C@@H]1CCc2cc(O)c(N3CC(=O)NS3(=O)=O)c(F)c2C1 [Compound 354, 5-{(7R)-7-[(3-ethoxypropyl)amino]-1-fluoro-3-hydroxy-5,6,7,8-tetrahydronaphthalen-2-yl}-1λ^6,2,5-thiadiazolidine-1,1,3-trione]	1 to 10 nM	10 to 100 nM
COCCCCN1CCc2cc(O)c(N3CC(=O)NS3(=O)=O)c(F)c2C1 [Compound 293]	10 to 100 nM	10 to 100 nM
NC[C@@H]1CCc2cc(O)c(N3CC(=O)NS3(=O)=O)c(F)c2C1 [Compound 405, 5-[(7R)-7-(aminomethyl)-1-fluoro-3-hydroxy-5,6,7,8-tetrahydronaphthalen-2-yl]-1λ^6,2,5-thiadiazolidine-1,1,3-trione]	10 to 100 nM	10 to 100 nM
O=C1CN(c2c(O)cc3c(c2F)CN(C(=O)NCC2CC(F)(F)C2)CC3)S(=O)(=O)N1 [Compound 262]	10 to 100 nM	1 to 10 nM
O=C1CN(c2c(O)cc3c(c2F)CN(CCCCC(F)(F)F)CC3)S(=O)(=O)N1 [Compound 153, 5-[8-fluoro-6-hydroxy-2-(5,5,5-trifluoropentyl)-1,2,3,4-tetrahydroisoquinolin-7-yl]-1λ^6,2,5-thiadiazolidine-1,1,3-trione]	10 to 100 nM	10 to 100 nM
O=C1CN(c2c(O)cc3c(c2F)CN(CCCN2CCOCC2)CC3)S(=O)(=O)N1 [Compound 229]	10 to 100 nM	10 to 100 nM
NC[C@H]1CCc2cc(O)c(N3CC(=O)NS3(=O)=O)c(F)c2C1 [Compound 404, 5-[(7S)-7-(aminomethyl)-1-fluoro-3-hydroxy-5,6,7,8-tetrahydronaphthalen-2-yl]-1λ^6,2,5-thiadiazolidine-1,1,3-trione]	10 to 100 nM	10 to 100 nM
O=C1CN(c2c(O)cc3c(c2F)CN(CCN2CCNCC2)CC3)S(=O)(=O)N1 [Compound 247]	10 to 100 nM	10 to 100 nM
O=C1CN(c2c(O)cc3c(c2F)CN(CC2CCNCC2)CC3)S(=O)(=O)N1 [Compound 228]	> 100 nM	10 to 100 nM
CC(C)(CN[C@@H]1CCc2cc(O)c(N3CC(=O)NS3(=O)=O)c(F)c2C1)CN1CCCC1 [Compound 358, 5-[(7R)-7-{[2,2-dimethyl-3-(pyrrolidin-1-yl)propyl]amino}-1-fluoro-3-hydroxy-5,6,7,8-tetrahydronaphthalen-2-yl]-1λ^6,2,5-thiadiazolidine-1,1,3-trione]	10 to 100 nM	10 to 100 nM
Cc1n[nH]c(C)c1CN1CCc2cc(O)c(N3CC(=O)NS3(=O)=O)c(F)c2C1 [Compound 212]	> 100 nM	> 100 nM
CC(C)CCN[C@H]1Cc2c(cc(O)c(N3CC(=O)NS3(=O)=O)c2F)C[C@H]1O [Compound 393, 5-{(6R,7S)-1-fluoro-3,6-dihydroxy-7-[(3-methylbutyl)amino]-5,6,7,8-tetrahydronaphthalen-2-yl}-1λ^6,2,5-thiadiazolidine-1,1,3-trione]	1 to 10 nM	1 to 10 nM
O=C1CN(c2c(O)cc3c(c2F)C(=O)NCC3)S(=O)(=O)N1 [Compound 388, 5-(8-fluoro-6-hydroxy-1-oxo-1,2,3,4-tetrahydroisoquinolin-7-yl)-1λ^6,2,5-thiadiazolidine-1,1,3-trione]	> 100 nM	> 100 nM
CC(C)(O)CCN1CCc2cc(O)c(N3CC(=O)NS3(=O)=O)c(F)c2C1 [Compound 170]	10 to 100 nM	> 100 nM
Cc1nn(C)c(C)c1CN1CC(N2CCc3cc(O)c(N4CC(=O)NS4(=O)=O)c(F)c3C2)C1 [Compound 224]	> 100 nM	10 to 100 nM
O=C1CN(c2c(O)cc3c(c2F)CN(CCC2CCCCC2)CC3)S(=O)(=O)N1 [Compound 179]	10 to 100 nM	10 to 100 nM
CC(C)OCCN1CCc2cc(O)c(N3CC(=O)NS3(=O)=O)c(F)c2C1 [Compound 233]	> 100 nM	10 to 100 nM

SMILES	IC50 [1]	IC50 [2]
O=C1CN(c2c(O)cc3c(c2F)C[C@H](NCCC2CCOCC2)CO3)S(=O)(=O)N1 [Compound 375, 5-[(3S)-5-fluoro-7-hydroxy-3-{[2-(oxan-4-yl)ethyl]amino}-3,4-dihydro-2H-1-benzopyran-6-yl]-1λ^6,2,5-thiadiazolidine-1,1,3-trione]	10 to 100 nM	10 to 100 nM
NC[C@@H]1Cc2cc(O)c(N3CC(=O)NS3(=O)=O)c(F)c2C1 (single isomer, unassigned) [Compound 408]	1 to 10 nM	1 to 10 nM
CC(C)(CCN)CCN[C@@H]1CCc2cc(O)c(N3CC(=O)NS3(=O)=O)c(F)c2C1 [Compound 374, 5-{(7R)-7-[(5-amino-3,3-dimethylpentyl)amino]-1-fluoro-3-hydroxy-5,6,7,8-tetrahydronaphthalen-2-yl}-1λ^6,2,5-thiadiazolidine-1,1,3-trione]	1 to 10 nM	10 to 100 nM
Cc1c(CNC(=O)N2CCc3cc(O)c(N4CC(=O)NS4(=O)=O)c(F)c3C2)cnn1C [Compound 271]	10 to 100 nM	10 to 100 nM
CC(C)CCN1CCc2cc(O)c(N3CC(=O)NS3(=O)=O)c(F)c2C1 [Compound 220]	10 to 100 nM	10 to 100 nM
O=C1CN(c2c(O)cc3c(c2F)C[C@H](NCc2ccc(CO)o2)CC3)S(=O)(=O)N1 [Compound 359, 5-[(7R)-1-fluoro-3-hydroxy-7-({[5-(hydroxymethyl)furan-2-yl]methyl}amino)-5,6,7,8-tetrahydronaphthalen-2-yl]-1λ^6,2,5-thiadiazolidine-1,1,3-trione]	10 to 100 nM	10 to 100 nM
CC(C)CNS(=O)(=O)N1CCc2cc(O)c(N3CC(=O)NS3(=O)=O)c(F)c2C1 [Compound 328, 8-fluoro-6-hydroxy-N-(2-methylpropyl)-7-(1,1,4-trioxo-1λ^6,2,5-thiadiazolidin-2-yl)-3,4-dihydroisoquinoline-2(1H)-sulfonamide]	10 to 100 nM	10 to 100 nM
O=C1CN(c2c(O)cc3c(c2F)C[C@H](NCC2C4CCCC42)CO3)S(=O)(=O)N1 (mixture of isomers) [Compound 383, 5-[(3S)-3-({[(1RS,5SR)-bicyclo[3.1.0]hexan-6-yl]methyl}amino)-5-fluoro-7-hydroxy-3,4-dihydro-2H-1-benzopyran-6-yl]-1λ^6,2,5-thiadiazolidine-1,1,3-trione]	10 to 100 nM	10 to 100 nM
CC1=C(CCN2CCc3cc(O)c(N4CC(=O)NS4(=O)=O)c(F)c3C2)C(C)(C)CCC1 [Compound 297]	< 1 nM	1 to 10 nM
CC(C)(C)OC(=O)N[C@H]1CC[C@H](CCN2CCc3cc(O)c(N4CC(=O)NS4(=O)=O)c(F)c3C2)CC1 [Compound 300]	1 to 10 nM	1 to 10 nM
CC(C)(C)CNC(=O)N1CCc2cc(O)c(N3CC(=O)NS3(=O)=O)c(F)c2C1 [Compound 277]	1 to 10 nM	10 to 100 nM
CC(C)CCNC(=O)N1CCc2cc(O)c(N3CC(=O)NS3(=O)=O)c(F)c2C1 [Compound 205]	1 to 10 nM	10 to 100 nM
O=C1CN(c2c(O)cc3c(c2F)CN(CCN2CCCC2)CC3)S(=O)(=O)N1 [Compound 193]	> 100 nM	10 to 100 nM
[2H]C1([2H])Cc2cc(O)c(N3CC(=O)NS3(=O)=O)c(F)c2C([2H])([2H])[C@]1([2H])NCCC(C)C (single isomer, unassigned) [Compound 371]	< 1 nM	1 to 10 nM
COCCCN1CCc2cc(O)c(N3CC(=O)NS3(=O)=O)c(F)c2C1 [Compound 217]	> 100 nM	> 100 nM
O=C1CN(c2c(O)cc3c(c2F)CN(C(=O)NCC2COC2)CC3)S(=O)(=O)N1 [Compound 283]	10 to 100 nM	> 100 nM
O=C1CN(c2c(O)cc3c(c2F)CN(CC[C@H]2C[C@@H](OC(F)(F)F)C2)CC3)S(=O)(=O)N1 [Compound 231]	10 to 100 nM	1 to 10 nM
O=C1CN(c2c(O)cc3c(c2F)CN(CCc2cncnc2)CC3)S(=O)(=O)N1 [Compound 210]	> 100 nM	10 to 100 nM
